The values below come from article PMC10578352, “Identification of a Protein Arginine Methyltransferase 7 (PRMT7)/Protein Arginine Methyltransferase 9 (PRMT9) Inhibitor” (Journal of Medicinal Chemistry, 2023).

The assay addresses T1, GST-HsPRMT9 (Homo sapiens, UniProt Q6P2P2).
T1 construct: made in house; host or cells: E. coli
T1 sequence (Q6P2P2 1-845): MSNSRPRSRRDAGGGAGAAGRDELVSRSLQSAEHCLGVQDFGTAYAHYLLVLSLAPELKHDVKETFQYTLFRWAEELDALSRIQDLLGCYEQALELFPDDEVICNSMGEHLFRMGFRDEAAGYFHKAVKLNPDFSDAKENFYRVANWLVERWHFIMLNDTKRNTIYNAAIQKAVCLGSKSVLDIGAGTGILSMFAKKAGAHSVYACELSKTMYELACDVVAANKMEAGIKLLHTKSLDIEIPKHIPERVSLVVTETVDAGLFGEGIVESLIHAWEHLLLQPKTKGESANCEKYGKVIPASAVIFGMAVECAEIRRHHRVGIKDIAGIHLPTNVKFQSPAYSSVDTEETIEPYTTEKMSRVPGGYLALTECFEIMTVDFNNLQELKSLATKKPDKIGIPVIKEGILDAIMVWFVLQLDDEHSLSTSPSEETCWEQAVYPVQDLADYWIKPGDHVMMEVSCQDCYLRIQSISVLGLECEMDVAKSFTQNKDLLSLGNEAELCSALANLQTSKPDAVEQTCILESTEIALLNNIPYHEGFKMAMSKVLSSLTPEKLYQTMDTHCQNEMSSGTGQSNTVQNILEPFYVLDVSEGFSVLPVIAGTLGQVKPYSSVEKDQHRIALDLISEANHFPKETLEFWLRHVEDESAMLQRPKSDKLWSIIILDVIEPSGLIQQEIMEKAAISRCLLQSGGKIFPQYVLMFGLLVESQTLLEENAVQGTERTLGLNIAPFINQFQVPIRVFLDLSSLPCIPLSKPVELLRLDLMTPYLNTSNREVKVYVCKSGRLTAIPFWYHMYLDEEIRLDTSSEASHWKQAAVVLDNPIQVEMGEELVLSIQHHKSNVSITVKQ
Kind of assay: Radioisotope-based assay (SDS-PAGE, fluorography, densitometry), HsPRMT9. Type of assay: biochemical. To be noted: substrate GST-SF3B2 (401–550), 37 °C, read-out: % HsPRMT9 residual activity. The protocol: Based on these outcomes, we resolved to explore the effect on the capability to inhibit PRMT9 enzymatic activity of further reduction of the distance between the pharmacophoric moieties. […] After the experiment was repeated with 100, 250, and 500 μM concentrations of each inhibitor, half inhibition was observed only at a concentration of roughly 250 μM (Figure 4d).
[…]. The experiments were performed as reported in the Experimental procedures section. GST-HsPRMT9 (a) and GST-HsPRMT7 (b) were incubated with human GST-SF3B2 (401–550) peptide or recombinant HsH2B, respectively (1 μg of enzyme, 5 μg of substrate), 0.14 μM [^3H]SAM, and the indicated concentrations of tested compounds at the corresponding optimal reaction temperature (37 °C for HsPRMT9, 15 °C for HsPRMT7). C. elegans GST-tagged enzymes PRMT9 (c) and PRMT7 (d) were incubated with GST-CeSFTB-2 (99–248) fragment or recombinant HsH2B, respectively (1 μg of enzyme, 5 μg of substrate), 0.14 μM [^3H]SAM, and the indicated concentrations of tested compounds at the corresponding optimal reaction temperature (25 °C for CePRMT9, 15 °C for CePRMT7). After SDS-PAGE, the gels were treated as previously described[48] and densitometry analysis was done using ImageJ software, and data was plotted as normalized activity to the no inhibitor controls.
Human PRMT9, C. elegans PRMT9, human PRMT7, and C. elegans PRMT7 plasmids were sequenced, expressed in E. coli as GST-fusion proteins, and purified as previously described.[48] Substrates were also sequenced and purified as described [human GST-SF3B2 (401–550);[13]C. elegans SFTB-2;[48] human histone H2B (New England Biolabs, M2505S)]. Xenopus laevis histone H2B was expressed in E. coli and purified similarly to what was previously reported by Luger et al.[72]
Reactions consisting of approximately 1 μg of enzyme (human or C. elegans GST-tagged enzymes PRMT9 and PRMT7), reacted with approximately 5 μg of substrate [for human PRMT9, human GST-SF3B2 401–550 fragment; C. elegans PRMT9 with C. elegans GST-SFTB-2 (99–248) fragment, or recombinant human histone H2B from New England Biolabs (M2505S)], were incubated for the indicated time in reaction buffer {50 mM potassium HEPES buffer, 10 mM NaCl, 1 mM dithiothreitol (DTT), pH 8.0 with 0.7 μM S-adenosyl-L-[methyl-^3H]methionine (^3H-AdoMet, PerkinElmer Life Sciences, 82.7 Ci/mmol, 0.55 mCi/mL in 10 mM H2SO4/EtOH [9:1 (v/v)])} in a final reaction volume of 60 μL. Each reaction was incubated at the corresponding optimal reaction temperature (37 °C for human PRMT9, 25 °C for C. elegans PRMT9, and 15 °C for C. elegans and human PRMT7 enzymes. MTA was dissolved in water, and a wavelength scan was taken to determine the final concentration using the extinction coefficient. The final concentrations used are indicated in the figure legends. […]. EML734, EML736, and EML709 were also dissolved in DMSO, and further dilutions were made in DMSO for the working stocks. For controls, no inhibitor reactions were created by the addition of the respective solvent (water for MTA and DMSO for EPZ015666 and EML inhibitors).
After the reaction incubations with the various concentrations of inhibitors, the reactions were quenched by adding 0.2 volume of 5× SDS sample loading buffer, and subsequently, the reactions were run on a 12.6% polyacrylamide Tris gel. To collect the radioactive signal, the gels were then treated in the same way as previously described.[48]
After various exposures were collected to ensure linear detection, densitometry analysis was done using ImageJ software, and data were plotted as normalized activity to the no inhibitor controls.

`COC(=O)c1cc(O)c2cc(NC(=O)NCCCNC(=N)NC[C@H]3O[C@@H](n4cnc5c(N)ncnc54)[C@H](O)[C@@H]3O)ccc2c1` [1a]: the remaining activity at 5 µM worked out at 30.4%, the remaining activity at 25 µM was 3.42%, the remaining activity at 50 µM stood at 1.37% and the remaining activity at 100 µM came to 0.3%.

Regarding `COC(=O)c1cc(O)c2cc(NC(=O)NCCCCNC(=N)NC[C@H]3O[C@@H](n4cnc5c(N)ncnc54)[C@H](O)[C@@H]3O)ccc2c1` [1b], the remaining activity at 5 µM was found to be 46%, the remaining activity at 25 µM was 13.8%, the remaining activity at 50 µM is 6.15% and the remaining activity at 100 µM was 1.64%.

Regarding `COC(=O)c1cc(O)c2cc(NC(=O)NCCCCCNC(=N)NC[C@H]3O[C@@H](n4cnc5c(N)ncnc54)[C@H](O)[C@@H]3O)ccc2c1` [1c], the remaining activity at 5 µM was 32%, the remaining activity at 25 µM is 6.5%, the remaining activity at 50 µM was 0.52% and the remaining activity at 100 µM was determined as 0.34%.
